Laboratory results published in patent US20160199434A1, “COMPOSITIONS AND METHODS FOR MODULATING DNA METHYLATION” (OHIO STATE INNOVATION FOUNDATION, priority 2013, published 2016).
“And” between values parts separate entries of the source, which are not always exact repeats. Equal values may be shown once. “Also recorded” adds a separate entry of the source.

How the values were obtained:
[1] = tested on: DNMT-3b; assay: DNMT-3b mRNA level by RT-PCR in PyMT tumor cells; format: cell-based, mouse; conditions: PyMT tumor cells in culture
Experimental: (§1) Because DSP is regulated by ER/PR expression, and because late-stage PyMT tumors lose ER/PR-positivity and heavily metastasize to the lymph nodes and lungs (Lin et al., 2003), the effects of AKB-6899 on more global events that regulate gene expression was evaluated. PyMT tumor cells in culture were treated with DMSO or AKB-6899. Methylation-specific PCR for CpG islands in the desmoplakin promoter were performed. […] Trypan Blue confirmed no cell death in AKB-6899 treated cells when compared to control cells. The experiment was repeated and RNA was isolated from the cells. RT-PCR was performed and the regulation of DNA methyltransferases (DNMTs) was evaluated. […] (FIG. 1A). The decrease in mRNA levels of DNMT-1 and DNMT-3a increased the mRNA level of DSP (FIG. 4A) and increased desmoplakin protein expression (FIG. 5A).

[2] = tested on: desmoplakin (DSP) gene promoter; assay: Methylation-specific PCR of DSP promoter in PyMT breast cancer cells; format: cell-based, mouse
Experimental: (§2) FIGS. 3A-3E show the effect of AKB-6899 (25 μM) on methylation of the desmoplakin (DSP) gene promoter in PyMT breast cancer cells (3A), human MDA-MB-231 triple negative breast cancer cells (3B), human C8161.9 melanoma cells (3C), and human MCF-7 breast cancer cells (3D). In FIG. 3A, the DSP promoter was 100% unmethylated (AKB-6899) vs. 99.99% methylated (vehicle). In FIG. 3B, the DSP promoter was 99.62% unmethylated (AKB-6899) v. 99.89% (vehicle). In FIG. 3C, the DSP promoter was 99.90% unmethylated (AKB-6899) v. 42.04% (vehicle). In FIG. 3D, the DSP promoter was 92.48% unmethylated (AKB-6899) v. 98.48% (vehicle). In FIG. 3E, when compared to the vehicle (DMSO), treatment of PyMT cells with AKB-6899 increased DSP expression.
as §1

[3] = tested on: desmoplakin mRNA; assay: Desmoplakin mRNA expression in cultured PyMT cells; format: cell-based, mouse
Experimental: as §2
(§3) FIGS. 4A-4B show desmoplakin mRNA expression in vitro and in vivo.

[4] = tested on: desmoplakin protein; assay: Desmoplakin protein expression in cultured PyMT tumor cells; format: cell-based, mouse; conditions: 10 μM, 24 hours (FIG. 5A)
Experimental: FIGS. 5A-5B show desmoplakin protein expression following AKB-6899 treatment. In FIG. 5A, cultured PyMT tumor cells were treated for 24 hours with DMSO or AKB-6899 (10 μM). AKB-6899 increased desmoplakin protein expression.
The gene expression signatures from the tumors of PyMT breast tumor-bearing mice that were treated with either vehicle or AKB-6899 were evaluated. […] Methylation-specific PCR on the desmoplakin promoter was performed. The level of hypomethylation was near complete.

[5] = tested on: desmoplakin (DSP) mRNA; assay: Desmoplakin mRNA expression in PyMT tumors of tumor-bearing mice; format: in vivo, mouse
Text: as §3
Desmoplakin (DSP) is the major protein component of the desmosome located in the inner membrane of epithelial cells where it binds desmosomal cadherins to maintain cell-to-cell adhesion. DSP is regulated by ER/PR expression (Maynadier et al. 2012; Ahmed et al., 1995; Pang et al., 2004). Clinically, expression of DSP is higher in normal mammary epithelium. Loss of DSP correlates with less differentiated breast tumors and increased lymph node involvement. […] Functional desmoplakin that is incorporated into the desmosome is not phosphorylated at serine 165/166. Phosphorylation at ser165/166 by protein kinase C (PKC) causes desmoplakin to disassemble from the desmosome. The loss of desmosome function and decreased adherence junctions are markers that can inform tumor staging, prognosis, and treatment planning as this transition eliminates therapeutic effectiveness and increases the likelihood of poor clinical outcome (Dusek et al., 2011). Further, loss of DSP is a marker in the Epithelial-to-Mesenchymal Transition (EMT) process as it binds to adherence proteins that also translocate to the nucleus and activate the Wnt/β-catenin pathway (Yang et al., 2012).
The gene expression signatures from the tumors of PyMT breast tumor-bearing mice that were treated with either vehicle or AKB-6899 were evaluated. […]

[6] = tested on: c-Myc promoter; assay: Percent DNA methylation of c-Myc promoter in human cervical tumors in animals; format: in vivo; conditions: animal models of human cervical tumors, 17.5 mg/kg (FIG. 7A)
Experimental: (§4) Animal models of human cervical tumors were untreated, treated with DMSO, treated with 5-AZA or treated with AKB-6899 (17.5 mg/kg).

[7] = tested on: c-Myc; assay: c-Myc expression (relative copy number) in human cervical tumors in animals; format: in vivo; conditions: animal models of human cervical tumors, 17.5 mg/kg (FIG. 7B)
Experimental: as §4

[8] = tested on: human A375 melanoma cells; assay: Tumor growth of human A375 melanoma cells implanted in SCID mice; format: in vivo, mouse; conditions: 19 days after palpable tumor formation, AKB-6899 17.5 mg/kg, Docetaxel 30 mg/kg
Experimental: During treatment, tumor growth was determined. Animals were treated with one the following combinations: vehicle/vehicle, vehicle/AKB-6899 (17.5 mg/kg), Docetaxel (30 mg/kg)/vehicle, or Docetaxel/AKB-6899. 19 days after palpable tumor formation, the tumors in the mice receiving the vehicle/AKB-6899 combination had tumors that were 74% the size of control; the tumors in the mice receiving Docetaxel/vehicle combination had tumors that were 49% the size of control; and the tumors in the mice receiving the Docetaxel/AKB-6899 combination had tumors that were 13% the size of control.

[9] = tested on: DNMT-3b; assay: DNMT-3b transcription in A549 lung cancer cells; format: cell-based, human; conditions: A549 cells (FIG. 10B)
Text: In FIG. 10A, AKB-6899 inhibited DNMT-1, DNMT-3a, and DNMT-3b transcription in a dose-dependent manner in human squamous cell carcinoma lung cancer cells (H1703), in vitro. The DMSO-treated DNMT mRNAs are over 1.0, meaning the level of expression is higher than the housekeeping control gene, CAP1. In FIG. 10B, AKB-6899 inhibited DNMT-3a and DNMT-3b transcription in human adenocarcinoma lung cancer cells (A549). The DMSO-treated DNMT mRNAs are under 1.0, meaning the level of expression is lower than the housekeeping control gene, CAP1.

[10] = tested on: DSP mRNA; assay: DSP mRNA expression in lungs of normal mice; format: in vivo, mouse; conditions: i.p., three weeks (FIG. 14C)
Experimental: FIGS. 14A-14C show the effects of systemic administration of AKB-6899. Mice were treated three times per week for three weeks with either i.p. AKB-6899 or i.p. DMSO. The lungs were removed and assayed to determine DNMT mRNA expression, percent CpG methylation, and fold change in mRNA. […] The data was standardized to 1.0 by the DMSO levels of the respective gene expression, (n=4 lungs per condition).

O=C(O)CNC(=O)c1ncc(-c2cccc(F)c2)cc1O [AKB-6899, {[5-(3-Fluorophenyl)-3-hydroxypyridine-2-carbonyl]amino}acetic acid]
DNMT-3b mRNA level [1]: no difference
DSP promoter unmethylated ([2]; PyMT breast cancer cells, 25 μM (FIG. 3A)): 100%
desmoplakin promoter methylation after treatment ([2]; PyMT mouse breast cancer cells): 0.0%
methylation state of DSP promoter CpG islands (in words) ([2]; PyMT tumor cells in culture): entirely unmethylated; also recorded: near complete
DSP expression ([3]; PyMT cells, compared to vehicle (DMSO) (FIG. 3E)): increased
desmoplakin mRNA expression ([3]; cultured PyMT cells, 10 μM, compared to DMSO (FIG. 4A)): significantly increases
desmoplakin protein expression [4]: upregulation; also recorded: increased
increase in DSP mRNA expression ([5]; PyMT breast tumor-bearing mice, 17.5 mg/kg, vs DMSO/vehicle animals, 17.5 mg/kg): ~118 fold and 118.5 fold
desmoplakin expression from PyMT tumors (in words) ([5]; in vivo, compared to vehicle (FIG. 4B)): significantly increased
DNA methylation of c-Myc promoter [6]: completely demethylated
c-Myc expression [7]: inhibited
tumor size relative to control [8]: 74%
DNMT-3b transcription [9]: inhibited
DSP mRNA expression in lungs [10]: increased
